Source: article PMC13185819, “De Novo Multi‐Mechanism Antimicrobial Peptide Design via Multimodal Deep Learning” (Advanced Science, 2026)
In brackets after ≈: the same amount, converted by molar mass. Residues, ends and D or L forms follow the SMILES beside them.

Assays:
mice = assay: Systemic safety, intraperitoneal injection; format: in vivo, C57BL/6J mice; conditions: for survival rate over 96 h: intraperitoneal injection, 60 mg/kg, n = 8; for hepatorenal toxicity (H&E of liver and kidney): intraperitoneal, 40 mg/kg, 12 h
Method: The 10‐week‐old female C57BL/6J mice were randomly divided into three groups (n = 8 for each group). […] Mouse survival was monitored for 96 h. For pathologic analysis, mouse liver and kidneys were obtained by surgery for hematoxylin‐eosin (HE) staining after treatment with 40 mg/kg QLX‐3DV‐1 and QLX‐3DV‐2 for 12 h.

[1] = test system: intact or abraded skin of mice; assay: Mouse skin tolerance test; format: in vivo, C57BL/6J mice; conditions: for skin irritation or pathology at 72 h post-treatment: shaved intact and abraded skin, 10 µL of 150 mg/mL
Method: For the skin local safety study, the intact or abraded skin of the mice was treated once with antimicrobial peptides QLX‐3DV‐1, QLX‐3DV‐2, or water. In brief, ten‐week‐old female C57BL/6J mice (n = 8 for each group) were anesthetized using isoflurane and administered buprenorphine as an analgesic at 0.1 mg/kg intraperitoneally. After removing the back hair of the mice, the skin on the back of the mice in the scratch group was sanded with 60‐grit sandpaper until the skin oozed blood. The intact skin group received no additional treatment except shaving. 10 µL QLX‐3DV‐1 and QLX‐3DV‐2 (150 mg/mL) or water was applied uniformly over the intact or abraded skin to assess the acute dermal toxicity. Groups without any addition served as untreated controls. Weight changes were recorded over 72 h. Histopathological characteristics of treated skin detected by H&E staining on the third day.

[2] = test system: 25 strains of ESKAPE MDROs; format: cell-based; conditions: lowest value over gram-negative strains
In short: (§1)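 Broth microdilution per CLSI in Mueller–Hinton broth with serial twofold peptide dilutions. Inoculum from overnight 37°C colonies adjusted to McFarland 0.5 and diluted to 1 × 10^6 CFU/mL before mixing 1:1 with peptide. Three independent replicates.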

[3] = test system: human red blood cells (hRBCs); assay: Hemolysis assay; format: cell-based; conditions: human red blood cells 8% (v/v) in PBS pH 7.4, 1 h, 37°C, absorbance 570 nm; linear interpolation
Method: Human red blood cells (hRBCs) were purchased from Xiamen Immocell Biotechnology Co., Ltd. For the hemolysis test, fresh human red blood cells (hRBCs) were washed three times with PBS (35 mM phosphate buffer, 0.15 M NaCl, pH 7.4) by centrifugation for 5 min at 1000 × g and resuspended in PBS. Then, 50 µL peptide solutions (serial twofold dilutions in PBS) were added to 100 µL of hRBC suspension [8% (v/v) in final] in PBS and incubated for 1 h at 37°C. Samples were centrifuged at 1000 × g for 5 min, and hemoglobin release was monitored by measuring the supernatant absorbance at 570 nm in a flat‐bottom 96‐well plate (Servicebio). hRBCs in PBS or 0.1% Triton X‐100 were used as the negative and positive controls, respectively.

E. faecium 21 = format: cell-based
In short: as §1

E. faecium 1042 = format: cell-based
In short: as §1

E.coli 110 = format: cell-based
In short: as §1

S. aureus ATCC33592 = format: cell-based
In short: as §1

E.coli 208 = format: cell-based
In short: as §1

S. aureus CICC25138 = format: cell-based
In short: as §1

E.coli CMCC44102 = format: cell-based
In short: as §1

K. pneumoniae 7713 = format: cell-based
In short: as §1

S. aureus CMCC26003 = format: cell-based
In short: as §1

| SMILES | survival rate over 96 h (mice) [%] | hepatorenal toxicity (H&E of liver and kidney) (mice) | Gross pathology findings (Number of mice) ([1]; mouse, in vivo) | Histopathological findings, Fibrosis in the dermis (Number of mice) ([1]; mouse, in vivo) | Histopathological findings, Lymphohistiocytic infiltration in the dermis (Number of mice) ([1]; mouse, in vivo) | Skin irritation, Erythema formation (Number of mice) ([1]; mouse, in vivo) | skin irritation or pathology at 72 h post-treatment [1] | MIC against gram-negative strains, as low as [2] [µg/mL] | Skin irritation, Edema formation (Number of mice) ([1]; mouse, in vivo) | 25% hemolytic concentration (HC25) [3] [µg/mL] | MIC (μg/mL) E. faecium 21 (E. faecium 21) [µg/mL] | MIC (μg/mL) E. faecium 1042 (E. faecium 1042) [µg/mL] | MIC (μg/mL) E.coli 110 (E.coli 110) [µg/mL] | MIC (μg/mL) S. aureus ATCC33592 (S. aureus ATCC33592) [µg/mL] | MIC (μg/mL) E.coli 208 (E.coli 208) [µg/mL] | MIC (μg/mL) S. aureus CICC25138 (S. aureus CICC25138) [µg/mL] | MIC (μg/mL) E.coli CMCC44102 (E.coli CMCC44102) [µg/mL] | MIC (μg/mL) K. pneumoniae 7713 (K. pneumoniae 7713) [µg/mL] | MIC (μg/mL) S. aureus CMCC26003 (S. aureus CMCC26003) [µg/mL] |
| --- | --- | --- | --- | --- | --- | --- | --- | --- | --- | --- | --- | --- | --- | --- | --- | --- | --- | --- | --- |
| CC[C@H](C)[C@H](NC(=O)[C@H](CCCCN)NC(=O)[C@H](Cc1c[nH]c2ccccc12)NC(=O)[C@@H](N)CCCCN)C(=O)N[C@@H](CCCCN)C(=O)N[C@@H](Cc1c[nH]c2ccccc12)C(=O)N1CCC[C@H]1C(=O)N[C@@H](CO)C(=O)N[C@@H](CCCNC(=N)N)C(=O)N[C@@H](Cc1c[nH]c2ccccc12)C(=O)N[C@@H](Cc1ccccc1)C(=O)N[C@@H](CCCNC(=N)N)C(=O)N[C@@H](CCCCN)C(=O)N[C@@H](CC(C)C)C(N)=O [QLX-3DV-1] (H-KWKIKWPSRWFRKL-NH2) | 100 | no significant hepatorenal toxicity | 0 / 8 | 0 / 8 | 0 / 8 | 0 / 8 | no signs of skin irritation or pathology | 4 (≈ 2.04 µM) |  |  |  |  |  |  |  |  |  |  |  |
| CC[C@H](C)[C@H](NC(=O)[C@H](CCCCN)NC(=O)[C@H](Cc1c[nH]c2ccccc12)NC(=O)[C@@H](N)CCCCN)C(=O)N[C@@H](CCCCN)C(=O)N[C@@H](Cc1c[nH]c2ccccc12)C(=O)N1CCC[C@H]1C(=O)N[C@H](C(=O)N[C@@H](CCCNC(=N)N)C(=O)N[C@@H](Cc1c[nH]c2ccccc12)C(=O)N[C@@H](Cc1ccccc1)C(=O)N[C@@H](CCCNC(=N)N)C(=O)N[C@@H](CCCCN)C(=O)N[C@@H](CC(C)C)C(N)=O)C(C)C [QLX-3DV-2] (H-KWKIKWPVRWFRKL-NH2) |  | no significant hepatorenal toxicity | 0 / 8 | 0 / 8 | 0 / 8 | 0 / 8 | no signs of skin irritation or pathology | 4 (≈ 2.03 µM) | 0 / 8 |  |  |  |  |  |  |  |  |  |  |
| CC[C@H](C)[C@H](NC(=O)[C@H](CCSC)NC(=O)[C@H](Cc1c[nH]c2ccccc12)NC(=O)[C@@H](N)CCCCN)C(=O)N[C@@H](CCCCN)C(=O)N[C@@H](Cc1c[nH]c2ccccc12)C(=O)N1CCC[C@H]1C(=O)N[C@@H](CO)C(=O)N[C@@H](CC(N)=O)C(=O)N[C@@H](Cc1c[nH]c2ccccc12)C(=O)N[C@@H](Cc1ccccc1)C(=O)N[C@H](C(=O)N[C@@H](CCSC)C(=O)N[C@@H](CC(C)C)C(N)=O)[C@@H](C)O [QLX-227-1] (H-KWMIKWPSNWFTML-NH2) |  |  |  |  |  |  |  |  |  | 100.92 | 16 (≈ 8.57 µM) | 32 (≈ 17.1 µM) | 32 (≈ 17.1 µM) | 64 (≈ 34.3 µM) | 16 (≈ 8.57 µM) | 64 (≈ 34.3 µM) | 32 (≈ 17.1 µM) | 64 (≈ 34.3 µM) | 32 (≈ 17.1 µM) |
| CC(=O)N[C@@H](CC(C)C)C(=O)N[C@@H](CCCCN)C(=O)N[C@@H](CCCNC(=N)N)C(=O)N[C@H](C(=O)N[C@@H](Cc1c[nH]c2ccccc12)C(=O)N[C@@H](CCCCN)C(=O)N[C@@H](CCCNC(=N)N)C(=O)N[C@H](C(=O)N[C@@H](Cc1ccccc1)C(=O)N[C@@H](CCCCN)C(=O)N[C@@H](CC(C)C)C(=O)N[C@@H](CC(C)C)C(=O)N[C@@H](CCCCN)C(=O)N[C@@H](CCCNC(=N)N)C(=O)N[C@@H](Cc1ccc(O)cc1)C(=O)N[C@@H](Cc1c[nH]c2ccccc12)C(=O)N[C@@H](CCCNC(=N)N)C(=O)N[C@@H](CCC(N)=O)C(=O)N[C@@H](CC(C)C)C(=O)N[C@@H](CCCCN)C(=O)N[C@@H](CCCCN)C(=O)N1CCC[C@H]1C(=O)N[C@H](C(=O)N[C@@H](CCCNC(=N)N)C(N)=O)C(C)C)C(C)C)C(C)C [SAAP-148, reference compound] (Ac-LKRVWKRVFKLLKRYWRQLKKPVR-NH2) | 50 |  |  |  |  |  |  |  |  | 26.89 |  |  |  |  |  |  |  |  |  |
